Experimental data taken from patent US5095037A, “Combined anti-inflammatory agent” (Nissho Corporation, priority 1989, dated 1992).

Columns and labels:
[1] = tested on: carrageenan-induced edema; experiment: Test Example 1: inhibitory effect on carrageenan-induced edema, foot pad, agent 6 h before carrageenan (Table 2); type: in vivo, Wister male rats
Protocol: The inhibitory effect on carrageenan-induced edema was investigated as to combined agents of sodium hyaluronate (molecular weight: 8 ×10^5) and various anti-inflammatory agents.
Wister male rats weighing 240 to 260 g (6 weeks old) were preliminarily bred for not less than 1 week. Eight rats were used in one group. Each test agent shown in Table 2 was dissolved or suspended in an isotonic phosphate buffer solution (pH 7.0) to give a 1% solution or suspension (hereinafter referred to as "1% solution"). The solution was administered subcutaneously into the right foot pad of each rat. Six hours after the administration, a 1% solution of carrageenan was administered subcutaneously as an irritating agent into the right foot pad of the rat in a dose of 0.1 ml/animal. The volume of the right foot pad was measured before and 4 hours after the administration of carrageenan. The rate of edema inhibition (hereinafter referred to as "inhibitory rate") by each test agent was calculated from the obtained measurements and thus the inhibitory effect on edema was evaluated.
(§1) The rate of inhibition (%) of the edema of the foot pad of each rat was calculated according to the following formula (III). [formula] MCEV: Average swollen rate of the foot pad 4 hours after the administration of carrageenan in the control group
(§2) MTEV: Average swollen rate of the foot pad 4 hours after the administration of carrageenan in the drug-given group [formula] CEV: Volume of foot pad of each rat before the administration of carrageenan
(§3) TEV: Volume of foot pad of each rat 4 hours after the administration of carrageenan
(§4) With respect to each agent, the evaluation of the inhibitory effect on edema was carried out according to the following criteria: Synergistic effect was observed:
(§5) Very great HA % + DG % ≤ ED %
(§6) Great TD % ≤ ED % < HA % + DG %
(§7) Small MD % < ED % < TD %
(§8) No synergistic effect was observed:
(§9) HA % : Inhibitory rate by the administration of sodium hyaluronate alone
(§10) DG % : Inhibitory rate by the administration of the anti-inflammatory agent alone
(§11) ED % : Inhibitory rate by the administration of the combined agent
(§12) MD % : {The greater one between HA % and DG %} × 1.2
(§13) TD % : HA % + DG % (1--HA %/100)

[2] = tested on: carrageenan-induced edema; experiment: Test Example 4: inhibitory effect on carrageenan-induced edema, various acid anti-inflammatory agents (Table 5); type: in vivo, Wister male rats; settings: dose 4 mg/kg, single agent
Protocol: (§14) The measurement of the volume was carried out according to the method of Fujimura et al. (see Iyakuhin Kaihatsu Kisokoza, Vol. 6, "Yakubutsu no Hyoka (1)" editted by Tsuda and Nogami, p 239-282, Kabushiki Kaisha Chizin-sha, 1971).
as §1, §2, §3, §4, §5, §6, §7, §8, §9, §10, §11, §12, §13
The inhibitory effect on carrageenan-induced edema was investigated with respect to combined agents of sodium hyaluronate (molecular weight: 8 × 10^5) and various acid anti-inflammatory agents.
(§15) Wister male rats weighing 240 to 255 (6 weeks old) were preliminarily bred for not less than 1 week. Eight rats were used in one group. A 1% solution of each test agent shown in Table 5 was administered subcutaneously into the right foot pad of each rat. Six hours after the administration, a 1% solution of carrageenen was administered subcutaneously as an irritating agent into the right foot pad of each rat in a dose of 0.1 ml/animal. The volume of the right foot pad was measured before and 4 hours after the administration of carrageenen. Then, the inhibitory effect on edema was evaluated in the same way as in Test Example 1.

[3] = tested on: carrageenan-induced edema; experiment: Test Example 6: prolonged inhibitory effect on carrageenan-induced edema, agent 16 h before carrageenan (Table 7); type: in vivo, Wister male rats
Protocol: as §14, §1, §2, §3, §4, §5, §6, §7, §8, §9, §10, §11, §12, §13
as §15, with “240 to 260 g (6 weeks” for “240 to 255 (6 weeks”, “in Table 7 was administered” for “in Table 5 was administered”, “each rat. Sixteen hours after” for “each rat. Six hours after”, “solution of carrageenan was administered” for “solution of carrageenen was administered”

[4] = tested on: movable range of joint (right knee); experiment: Test Example 7: inhibition of the damage to the movable range of joint, fixed right knee (Table 8); type: in vivo, Rabbits (New Zealand White); settings: articular cavity; for curative effect (in words): Table 8; for Inhibitory rate (damage to the movable range of joint): dose 3.0 mg/kg, once per three days, one month, single agent
Protocol: Rabbits (New Zealand White) weighing about 2 kg were preliminarily bred for not less than one week and healthy ones were selected (3 rabbits per group). The joint of right knee of each rabbit was fixed by applying a splint thereto and further completely fixed not so as to move by putting it in plaster. Then the rabbits were bred normally for one month.
During the normal breading, a 1% solution of each test agent shown in Table 8 was administered using an injection needle of gauge No. 27 into the articular cavity of each rabbit except those of the control group in a dose of 0.3 ml/kg body weight once per three days.
One day after the last administration, the splint and the plaster were removed and the movable range of the joint was measured with a protractor under anesthesia with Nembutal (trademark). The rate of inhibition of the damage to the movable range of joint with respect to each test agent was calculated from the obtained measurements and the curative effect was evaluated.
The rate of inhibition of the damage to the movable range of joint was calculated according to the following formula (IV), and the evaluation of synergistic effect was conducted under the same condition as in Test Example 1. [formula] MCJV: Average movable range of joint with respect to the rabbits of the […] group
MTJV: Average movable range of joint with respect to the rabbits of the […] group

[5] = tested on: carrageenan-induced edema; experiment: Test Example 2: inhibitory effect on carrageenan-induced edema, sodium hyaluronates of different molecular weights (Table 3); type: in vivo, Wister male rats; settings: dose 4.0 mg/kg
Protocol: as §14, §1, §2, §3
The inhibitory effect on carrageenan-induced edema was investigated as to combined agents of various grades of sodium hyaluronates having different molecular weights with diclofenac sodium.
Wister male rats weighing 230 to 265 g (6 weeks old) were preliminarily bred for not less than 1 week. Eight rats were used in one group. A 1% solution of each test agent shown in Table 3 was administered subcutaneously into the right foot pad of each rat. Six hours after the administration, a 1% solution of carrageenan was administered subcutaneously as an irritating agent into the right foot pad of the rat in a dose of 0.1 ml/animal. The volume of the right foot pad was measured before and 4 hours after the administration of carrageenan. Then the inhibitory effect on edema was evaluated in the same way as in Test Example 1.

[6] = tested on: carrageenan-induced edema; experiment: Test Example 3: inhibitory effect on carrageenan-induced edema, varied ratio of diclofenac sodium to sodium hyaluronate (Table 4); type: in vivo, Wister male rats; settings: dose 4 mg/kg; HA molecular weight 8 × 10^5
Protocol: as §14, §1, §2, §3
The inhibitory effect on carrageenan-induced edema was investigated with respect to combined agents of sodium hyaluronate (molecular weight: 8 × 10^5) and diclofenac sodium wherein the ratio of diclofenac sodium to sodium hyaluronate varied.
Wister male rats weighing 235 to 260 g (6 weeks old) were preliminarily bred for not less than 1 week. Eight rats were used in one group. […] The volume of the right foot pad was measured before and 4 hours after the administration of carrageenen. Then, the inhibitory effect on edema was evaluated in the same way as in Test Example 1.

ICR mice = experiment: Test Example 5: toxicity, number of dead mice 72 hours after subcutaneous administration (Table 6); type: in vivo; settings: dose 40 mg/kg s.c., 5 mice per group
Protocol: After preliminary breeding of mail ICR mice 5 weeks old weighing 23 to 28 g (5 mice per one group) for one week, a 1% solution of each test agent shown in Table 6 wa subcutaneously administered to the mice. The number of dead mice was counted 72 hours after the administration.
The doses of the test agent used in this test were about ten times those used in Test Example 1.
The molecular weight of sodium hyaluronate is 8 × 10^5. The
doses in Table 6 mean the amounts (mg) administered per kg body weight.
The dose values, to which the mark "+" is attached, as to the combined
agents means the amounts of antiinflammatory agent added to 40 mg/kg of
sodium hyaluronate (HA).

[7] = dose 4.0 mg/kg, s.c. foot pad, single agent, 4 h after carrageenan

C[C@]12C=CC(=O)C=C1CC[C@@H]1[C@@H]2[C@@H](O)C[C@@]2(C)[C@H]1CC[C@]2(O)C(=O)CO [Prednisolone]
Inhibitory rate (edema) ([1]; dose 0.5 mg/kg, s.c. foot pad, single agent, 4 h after carrageenan): 21.7%

CC(=O)Oc1ccccc1C(=O)O [Aspirin]
Inhibitory rate (edema) [2]: 14.6%

CC(C(=O)O)c1ccc2c(c1)Cc1cccnc1O2 (stereo not drawn) [Pranoprofen]
Inhibitory rate (edema) [2]: 39.0%

C=CCOc1ccc(CC(=O)O)cc1Cl [Alclofenac]
Inhibitory rate (edema) [2]: 22.9%

O=C(O)Cc1ccccc1Nc1c(Cl)cccc1Cl [Diclofenac sodium]
Inhibitory rate (edema) [1, 7]: 16.9% | Inhibitory rate (edema) ([3]; dose 3.0 mg/kg): 9.7% | curative effect (in words) [4]: some curative effect | Inhibitory rate (damage to the movable range of joint) [4]: 17.3%

Cc1ccc(C(=O)c2ccc(CC(=O)O)n2C)cc1 [Tolmetin]
Inhibitory rate (edema) [2]: 25.1%

Sodium hyaluronate [Sodium hyaluronate (HA)]
Inhibitory rate (edema) [1, 7]: 23.5% | Inhibitory rate (edema) ([3]; dose 4.0 mg/kg): 30.0% | Inhibitory rate (edema) ([5]; molecular weight of HA 28 × 10^4): -36.4% | Inhibitory rate (edema) ([5]; molecular weight of HA 58 × 10^4): 17.9% | Inhibitory rate (edema) ([5]; molecular weight of HA 80 × 10^4): 29.9% | Inhibitory rate (edema) ([5]; molecular weight of HA 210 × 10^4): 43.2% | Inhibitory rate (edema) [2]: 23.9% | curative effect (in words) [4]: some curative effect | Inhibitory rate (damage to the movable range of joint) [4]: 24.5% | Inhibitory rate (edema) [6]: 25.9% | Number of dead mice (ICR mice): 0

Cc1cccc(Nc2ccccc2C(=O)O)c1C [Mefenamic acid]
Inhibitory rate (edema) [2]: 34.2%

COc1ccc2c(c1)c(CC(=O)O)c(C)n2C(=O)c1ccc(Cl)cc1 [Indometacin]
Inhibitory rate (edema) ([1]; dose 1.2 mg/kg, s.c. foot pad, single agent, 4 h after carrageenan): 12.9% | Inhibitory rate (edema) ([3]; dose 3.0 mg/kg): 20%

CN1C(C(=O)Nc2ccccn2)=C(O)c2ccccc2S1(=O)=O [Piroxicam]
Inhibitory rate (edema) [1, 7]: 34.6%

CC(C)Cc1ccc(C(C)C(=O)O)cc1 (stereo not drawn) [Ibuprofen]
Inhibitory rate (edema) [1, 7]: 18.2%

CCCCC1C(=O)N(c2ccccc2)N(c2ccccc2)C1=O [Phenylbutazon, Phenylbutazone]
Inhibitory rate (edema) [1, 7]: 46.1%

O=C([O-])c1ccccc1O.[Na+] [Sodium salicylate]
Inhibitory rate (edema) ([1]; rat, in vivo, sc, 50 mg/kg): 46.6%
